Results published in ChEMBL document CHEMBL4376867 (J Med Chem, 2020).

Tests used:
ACHN = assay: Antiproliferative activity against human ACHN cells harboring CDKN2A mutation assessed as reduction in cell viability after 96 hrs by CellTiter-Glo luminescence assay; type: functional, cell-based
[1] = target: T1, Serine/threonine-protein kinase ULK1 (Homo sapiens, UniProt O75385); assay: Inhibition of wild-type human partial length ULK1 (M1 to T309 residues) expressed in mammalian expression system
T1 sequence (O75385 whole entry): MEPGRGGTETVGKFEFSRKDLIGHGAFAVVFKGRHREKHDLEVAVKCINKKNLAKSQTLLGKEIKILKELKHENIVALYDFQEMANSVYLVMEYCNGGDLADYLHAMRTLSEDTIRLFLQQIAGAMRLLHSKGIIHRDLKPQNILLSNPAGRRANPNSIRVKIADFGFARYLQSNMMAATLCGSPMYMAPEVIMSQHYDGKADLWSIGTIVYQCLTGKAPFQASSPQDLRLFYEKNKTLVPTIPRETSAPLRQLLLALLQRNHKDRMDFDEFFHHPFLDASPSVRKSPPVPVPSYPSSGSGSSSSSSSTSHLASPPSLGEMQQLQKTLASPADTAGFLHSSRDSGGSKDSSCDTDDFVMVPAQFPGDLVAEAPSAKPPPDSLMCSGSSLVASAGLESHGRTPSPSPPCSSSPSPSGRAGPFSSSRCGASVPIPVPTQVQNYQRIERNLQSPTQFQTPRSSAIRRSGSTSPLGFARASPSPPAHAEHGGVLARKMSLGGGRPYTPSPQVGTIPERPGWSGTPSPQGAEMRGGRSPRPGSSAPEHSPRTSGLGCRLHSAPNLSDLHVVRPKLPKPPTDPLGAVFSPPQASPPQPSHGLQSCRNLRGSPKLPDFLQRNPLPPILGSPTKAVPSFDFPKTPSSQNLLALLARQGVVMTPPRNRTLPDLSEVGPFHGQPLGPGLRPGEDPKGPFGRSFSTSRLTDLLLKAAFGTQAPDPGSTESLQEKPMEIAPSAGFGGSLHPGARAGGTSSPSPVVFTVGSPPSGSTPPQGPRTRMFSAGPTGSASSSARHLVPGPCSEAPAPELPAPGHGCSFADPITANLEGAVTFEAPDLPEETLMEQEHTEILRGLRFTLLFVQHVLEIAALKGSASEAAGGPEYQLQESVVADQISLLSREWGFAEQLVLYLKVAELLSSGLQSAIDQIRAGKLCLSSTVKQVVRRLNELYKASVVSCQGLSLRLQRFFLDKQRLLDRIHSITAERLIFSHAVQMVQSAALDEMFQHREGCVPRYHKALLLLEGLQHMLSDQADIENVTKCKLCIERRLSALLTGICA

[2] = target: T2, Serine/threonine-protein kinase TBK1 (Homo sapiens, UniProt Q9UHD2)
T2 sequence (Q9UHD2 whole entry): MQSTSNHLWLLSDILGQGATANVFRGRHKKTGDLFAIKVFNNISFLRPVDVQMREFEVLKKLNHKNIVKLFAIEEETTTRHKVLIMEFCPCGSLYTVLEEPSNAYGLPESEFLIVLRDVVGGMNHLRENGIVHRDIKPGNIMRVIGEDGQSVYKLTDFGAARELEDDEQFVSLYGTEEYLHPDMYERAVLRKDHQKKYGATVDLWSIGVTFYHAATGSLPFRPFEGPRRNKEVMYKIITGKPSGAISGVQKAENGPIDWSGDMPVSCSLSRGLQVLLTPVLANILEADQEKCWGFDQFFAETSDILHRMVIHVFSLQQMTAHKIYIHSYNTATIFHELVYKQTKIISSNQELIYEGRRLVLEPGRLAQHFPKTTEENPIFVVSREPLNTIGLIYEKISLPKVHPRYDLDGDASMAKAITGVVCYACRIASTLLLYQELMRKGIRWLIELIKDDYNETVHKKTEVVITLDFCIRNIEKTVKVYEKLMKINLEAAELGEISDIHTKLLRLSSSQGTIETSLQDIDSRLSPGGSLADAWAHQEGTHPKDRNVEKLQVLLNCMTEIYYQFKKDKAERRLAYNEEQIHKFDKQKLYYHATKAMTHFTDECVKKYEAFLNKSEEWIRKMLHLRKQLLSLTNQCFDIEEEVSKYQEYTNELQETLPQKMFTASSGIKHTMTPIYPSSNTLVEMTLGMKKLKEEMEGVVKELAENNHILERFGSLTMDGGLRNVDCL

[3] = target: T3, Receptor-type tyrosine-protein kinase FLT3 (Homo sapiens, UniProt P36888); assay: Inhibition of recombinant human N-terminal GST-tagged FLT3 (564 to end residues) expressed in sf21 cells using biotin labelled Ahx-GGEEEEYFELVKKKK peptide as substrate preincubated with enzyme for 15 mins followed by substrate addition and further incubated for 45 mins in presence of 10 uM of ATP by TR-FRET assay
T3 sequence (P36888 whole entry): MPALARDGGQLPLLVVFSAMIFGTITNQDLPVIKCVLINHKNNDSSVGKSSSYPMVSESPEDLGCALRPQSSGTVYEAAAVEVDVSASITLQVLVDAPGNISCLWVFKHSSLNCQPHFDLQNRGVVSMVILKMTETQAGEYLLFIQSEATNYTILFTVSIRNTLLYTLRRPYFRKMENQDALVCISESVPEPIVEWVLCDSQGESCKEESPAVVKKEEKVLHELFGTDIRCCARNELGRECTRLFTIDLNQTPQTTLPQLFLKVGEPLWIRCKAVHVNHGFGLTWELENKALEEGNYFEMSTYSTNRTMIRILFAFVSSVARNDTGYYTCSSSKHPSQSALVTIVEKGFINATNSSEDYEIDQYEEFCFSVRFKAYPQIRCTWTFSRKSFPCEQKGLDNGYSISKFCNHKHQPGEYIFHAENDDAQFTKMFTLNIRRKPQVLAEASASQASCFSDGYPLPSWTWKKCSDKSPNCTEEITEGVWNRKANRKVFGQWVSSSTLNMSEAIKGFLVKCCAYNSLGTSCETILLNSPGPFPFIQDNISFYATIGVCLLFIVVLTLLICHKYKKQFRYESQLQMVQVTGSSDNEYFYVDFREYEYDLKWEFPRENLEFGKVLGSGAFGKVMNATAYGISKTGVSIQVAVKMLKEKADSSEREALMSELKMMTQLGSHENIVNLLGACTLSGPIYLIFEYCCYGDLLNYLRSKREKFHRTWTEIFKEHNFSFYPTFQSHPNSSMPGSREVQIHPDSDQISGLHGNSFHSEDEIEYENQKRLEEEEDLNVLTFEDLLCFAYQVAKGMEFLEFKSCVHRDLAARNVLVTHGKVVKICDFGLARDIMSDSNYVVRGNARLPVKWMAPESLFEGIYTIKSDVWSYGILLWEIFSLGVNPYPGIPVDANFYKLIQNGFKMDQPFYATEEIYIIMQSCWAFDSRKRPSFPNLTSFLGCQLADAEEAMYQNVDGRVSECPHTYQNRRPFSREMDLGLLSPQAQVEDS

Compound | IC50 (ACHN) | IC50 [1] | IC50 [2] | IC50 [3]
C[C@H](c1ccnc(Nc2nc3ccc(-c4cnn(CC5CC5)c4)cc3[nH]2)c1)N1CCN(C(=O)CC(F)(F)F)CC1 | 5.27 µM | 0.009 µM | 0.001 µM | 0.018 µM
CN(C)c1cc(-c2ccc3nc(Nc4cc(CN5CCN(C(=O)CC(F)(F)F)CC5)ccn4)[nH]c3c2)ncn1 | 9.69 µM | > 10 µM | 0.009 µM | 0.114 µM
C[C@H](c1ccnc(Nc2nc3ccc(-c4cc(OCC5CC5)ncn4)cc3[nH]2)c1)N1CCN(C(=O)CC(F)(F)F)CC1 | 3.87 µM | 0.416 µM | 0.002 µM | 0.013 µM
O=C(CC(F)(F)F)N1CCN(Cc2ccnc(Nc3nc4ccc(-c5cnn(CC6CC6)c5)cc4[nH]3)c2)CC1 | 7.9 µM | 0.028 µM | 0.005 µM | 0.009 µM
Cc1cc(-c2ccc3nc(Nc4cc([C@@H](C)N5CCN(C(=O)CC(F)(F)F)CC5)ccn4)[nH]c3c2)ncn1 | 2.01 µM | 0.98 µM | 0.002 µM | 0.01 µM
CC(C)Oc1cncnc1-c1ccc2nc(Nc3cc([C@@H](C)N4CCN(C(=O)CC(F)(F)F)CC4)ccn3)[nH]c2c1 | 7.96 µM | 0.263 µM | 0.002 µM | 0.001 µM
Cc1noc(-c2ccc3nc(Nc4cc(CN5CCN(C(=O)CC(F)(F)F)CC5)ccn4)[nH]c3c2)n1 | 9.67 µM |  | 0.129 µM | 0.037 µM
Cc1noc(-c2ccc3nc(Nc4cc([C@@H](C)N5CCN(C(=O)CC(F)(F)F)CC5)ccn4)[nH]c3c2)n1 | 8.98 µM |  | 0.019 µM | 0.03 µM
COCc1cc(-c2ccc3nc(Nc4cc([C@@H](C)N5CCN(C(=O)CC(F)(F)F)CC5)ccn4)[nH]c3c2)ncn1 | 13.4 µM | 0.368 µM |  | 0.005 µM
CNc1cc(-c2ccc3nc(Nc4cc(CN5CCN(C(=O)CC(F)(F)F)CC5)ccn4)[nH]c3c2)ncn1 | 29.8 µM | 1.64 µM | 0.01 µM | 0.006 µM
C[C@H](c1ccnc(Nc2nc3ccc(-c4cc(N(C)C)ncn4)cc3[nH]2)c1)N1CCN(C(=O)CC(F)(F)F)CC1 [BAY-985] | 7.26 µM | 7.93 µM | 0.002 µM | 0.123 µM
